# From ChEMBL document CHEMBL2073948, “Interactions of the human multidrug resistance proteins MRP1 and MRP2 with organic anions” (Mol Pharmacol, 2000)
# Experiments:
# Assay type in all cases: functional, cell membranes, Membrane vesicle
# [1] = molecular target: T1, ATP-binding cassette sub-family C member 2 (Homo sapiens, UniProt Q92887); assay: TP_TRANSPORTER: uptake in membrane vesicles from MRP2-expressing Sf9 cells
# [2] = molecular target: T2, Multidrug resistance-associated protein 1 (Homo sapiens, UniProt P33527); assay: TP_TRANSPORTER: uptake in membrane vesicles from MRP1-expressing Sf9 cells
# T2 sequence (P33527 whole entry): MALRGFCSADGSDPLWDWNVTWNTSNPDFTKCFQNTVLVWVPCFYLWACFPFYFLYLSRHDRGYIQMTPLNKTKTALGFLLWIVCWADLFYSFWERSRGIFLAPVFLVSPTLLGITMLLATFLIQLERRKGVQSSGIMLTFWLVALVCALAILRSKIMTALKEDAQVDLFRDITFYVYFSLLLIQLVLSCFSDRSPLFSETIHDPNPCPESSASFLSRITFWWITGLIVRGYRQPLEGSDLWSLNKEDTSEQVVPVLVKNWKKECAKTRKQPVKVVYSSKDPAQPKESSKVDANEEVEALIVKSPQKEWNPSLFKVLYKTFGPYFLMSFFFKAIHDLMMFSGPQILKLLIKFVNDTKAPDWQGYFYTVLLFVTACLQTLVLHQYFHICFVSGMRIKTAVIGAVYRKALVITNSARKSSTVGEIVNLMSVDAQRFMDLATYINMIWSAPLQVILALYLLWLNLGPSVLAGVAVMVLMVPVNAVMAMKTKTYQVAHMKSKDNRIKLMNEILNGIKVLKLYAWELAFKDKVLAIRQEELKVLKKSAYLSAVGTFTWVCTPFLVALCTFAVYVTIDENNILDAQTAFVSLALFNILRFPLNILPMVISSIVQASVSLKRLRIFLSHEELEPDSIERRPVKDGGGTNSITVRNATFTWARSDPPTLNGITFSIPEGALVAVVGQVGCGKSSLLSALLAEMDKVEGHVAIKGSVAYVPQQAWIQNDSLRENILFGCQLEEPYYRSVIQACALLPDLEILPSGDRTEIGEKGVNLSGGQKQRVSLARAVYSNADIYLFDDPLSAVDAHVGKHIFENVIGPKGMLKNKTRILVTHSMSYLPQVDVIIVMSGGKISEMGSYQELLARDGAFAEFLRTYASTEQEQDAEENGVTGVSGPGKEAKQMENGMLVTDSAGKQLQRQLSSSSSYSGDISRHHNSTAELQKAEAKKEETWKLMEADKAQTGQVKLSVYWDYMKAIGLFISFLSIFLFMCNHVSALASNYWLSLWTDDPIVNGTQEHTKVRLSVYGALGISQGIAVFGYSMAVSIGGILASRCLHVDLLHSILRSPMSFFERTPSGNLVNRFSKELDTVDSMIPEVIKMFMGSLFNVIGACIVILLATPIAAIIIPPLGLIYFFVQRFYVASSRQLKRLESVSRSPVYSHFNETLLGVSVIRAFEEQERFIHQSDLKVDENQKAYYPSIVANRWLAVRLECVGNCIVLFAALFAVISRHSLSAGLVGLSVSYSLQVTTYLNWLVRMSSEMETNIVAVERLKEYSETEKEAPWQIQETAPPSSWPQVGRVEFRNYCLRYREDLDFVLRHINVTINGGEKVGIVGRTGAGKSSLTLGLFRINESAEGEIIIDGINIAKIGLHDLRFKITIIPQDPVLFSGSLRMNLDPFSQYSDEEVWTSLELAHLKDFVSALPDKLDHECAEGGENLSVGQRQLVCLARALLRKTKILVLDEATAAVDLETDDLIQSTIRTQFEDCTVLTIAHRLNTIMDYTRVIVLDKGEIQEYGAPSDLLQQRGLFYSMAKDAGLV
# [3] = molecular target: T1, ATP-binding cassette sub-family C member 2; assay: TP_TRANSPORTER: inhibition of NEM-GS uptake (NEM-GS: 4 uM, Furosemide: 5000 uM) in membrane vesicles from MRP2-expressing Sf9 cells; conditions: sf9, 5000 µM
# [4] = molecular target: T1, ATP-binding cassette sub-family C member 2; assay: TP_TRANSPORTER: inhibition of NEM-GS uptake (NEM-GS: 4 uM, Probenecid: <1000 uM) in membrane vesicles from MRP2-expressing Sf9 cells
# [5] = molecular target: T2, Multidrug resistance-associated protein 1; assay: TP_TRANSPORTER: inhibition of NEM-GS uptake (NEM-GS: 4 uM, Probenecid: <1000 uM) in membrane vesicles from MRP1-expressing Sf9 cells
# T1 sequence (Q92887 whole entry): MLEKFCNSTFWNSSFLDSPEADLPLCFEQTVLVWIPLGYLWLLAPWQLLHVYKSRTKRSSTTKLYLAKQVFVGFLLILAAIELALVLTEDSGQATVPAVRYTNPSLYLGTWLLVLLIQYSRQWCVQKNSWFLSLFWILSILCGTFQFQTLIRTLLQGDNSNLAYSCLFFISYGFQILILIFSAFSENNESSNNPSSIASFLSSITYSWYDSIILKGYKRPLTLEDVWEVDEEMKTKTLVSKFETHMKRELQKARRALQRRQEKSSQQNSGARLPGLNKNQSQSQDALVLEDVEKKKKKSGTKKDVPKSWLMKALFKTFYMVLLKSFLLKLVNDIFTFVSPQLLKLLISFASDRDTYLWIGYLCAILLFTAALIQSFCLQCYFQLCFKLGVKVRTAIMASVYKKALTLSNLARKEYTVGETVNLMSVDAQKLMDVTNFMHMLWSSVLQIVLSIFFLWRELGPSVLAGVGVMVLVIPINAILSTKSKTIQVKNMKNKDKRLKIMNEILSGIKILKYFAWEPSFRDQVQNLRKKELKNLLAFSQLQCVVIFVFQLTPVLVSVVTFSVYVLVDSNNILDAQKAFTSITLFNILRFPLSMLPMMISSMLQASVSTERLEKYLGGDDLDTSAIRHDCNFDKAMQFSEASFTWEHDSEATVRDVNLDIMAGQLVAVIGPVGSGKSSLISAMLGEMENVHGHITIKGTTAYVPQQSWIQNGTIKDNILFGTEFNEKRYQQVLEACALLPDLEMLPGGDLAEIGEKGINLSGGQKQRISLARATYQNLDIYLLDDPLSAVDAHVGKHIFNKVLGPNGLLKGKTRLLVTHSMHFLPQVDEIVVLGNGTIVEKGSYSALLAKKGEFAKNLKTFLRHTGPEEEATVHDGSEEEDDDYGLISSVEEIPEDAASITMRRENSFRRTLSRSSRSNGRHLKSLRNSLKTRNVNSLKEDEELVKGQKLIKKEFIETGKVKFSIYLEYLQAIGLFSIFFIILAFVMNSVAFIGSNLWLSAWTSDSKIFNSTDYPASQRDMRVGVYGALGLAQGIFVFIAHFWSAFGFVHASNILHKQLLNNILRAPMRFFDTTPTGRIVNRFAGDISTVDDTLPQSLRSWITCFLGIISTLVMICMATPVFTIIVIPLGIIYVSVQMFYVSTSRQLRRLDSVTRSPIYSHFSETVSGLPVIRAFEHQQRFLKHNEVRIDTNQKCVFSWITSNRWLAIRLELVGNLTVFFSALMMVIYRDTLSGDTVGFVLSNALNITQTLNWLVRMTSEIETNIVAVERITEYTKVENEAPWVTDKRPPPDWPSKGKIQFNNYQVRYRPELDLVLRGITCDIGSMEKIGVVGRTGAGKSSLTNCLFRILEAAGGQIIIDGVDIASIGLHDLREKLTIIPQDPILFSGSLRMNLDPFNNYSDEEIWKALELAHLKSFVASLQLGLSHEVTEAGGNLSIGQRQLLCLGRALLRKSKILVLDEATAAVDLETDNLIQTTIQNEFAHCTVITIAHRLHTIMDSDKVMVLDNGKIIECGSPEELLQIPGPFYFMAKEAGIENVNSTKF
structure (smiles),measurement,setting,value
NC(CCC(=O)NC(CNCC(=O)O)CSCCN1C(=O)C=CC1=O)C(=O)O (stereo not given),K1/2,[1],2500 µM
same,K1/2,[2],200 µM
NS(=O)(=O)c1cc(C(=O)O)c(NCc2ccco2)cc1Cl [FUROSEMIDE],Activity,[3],inhibitor [+]
CCCN(CCC)S(=O)(=O)c1ccc(C(=O)O)cc1 [PROBENECID],Activity,[4],inhibitor [+]
same,Activity,[5],inhibitor [+]
